Reference: the NIST ThermoML archive (doi:10.1016/j.jct.2005.10.004)
Several values for one entry are separate records, joined by “and”; a condition that tells them apart may be missing. Identical values can stand only once.

Experiment: xn = mol fraction of the nth substance listed
Details: Gas, Buoyancy - hydrostatic balance with magnetic suspension - one sinker

N#N [nitrogen] + C
Details	mass density
240 K, 2107.5 kPa, x2 = 0.8998	19.5904 kg/m3 and 19.5908 kg/m3
240 K, 4055.5 kPa, x2 = 0.8998	40.6283 kg/m3
240 K, 8017.2 kPa, x2 = 0.8	96.5565 kg/m3
240 K, 8864.8 kPa, x2 = 0.8	109.578 kg/m3
240 K, 12048 kPa, x2 = 0.8	159.33 kg/m3
240 K, 13511 kPa, x2 = 0.8998	181.648 kg/m3
240.01 K, 1951.7 kPa, x2 = 0.8	19.1493 kg/m3 and 19.149 kg/m3
240.01 K, 3991.5 kPa, x2 = 0.8	41.8987 kg/m3
240.01 K, 3991.7 kPa, x2 = 0.8	41.901 kg/m3
240.01 K, 6011.9 kPa, x2 = 0.8	67.6707 kg/m3
240.01 K, 6012.2 kPa, x2 = 0.8	67.6768 kg/m3
240.01 K, 7076 kPa, x2 = 0.8	82.6152 kg/m3
240.01 K, 8017.6 kPa, x2 = 0.8	96.5609 kg/m3
240.01 K, 8026.3 kPa, x2 = 0.8998	94.9591 kg/m3
240.01 K, 10028 kPa, x2 = 0.8998	127.626 kg/m3
240.01 K, 10029 kPa, x2 = 0.8998	127.633 kg/m3
240.01 K, 10372 kPa, x2 = 0.8	133.317 kg/m3 and 133.315 kg/m3
240.01 K, 12048 kPa, x2 = 0.8	159.332 kg/m3
240.01 K, 12090 kPa, x2 = 0.8998	160.982 kg/m3
240.01 K, 13638 kPa, x2 = 0.8	182.319 kg/m3
240.01 K, 15026 kPa, x2 = 0.8998	200.798 kg/m3
240.02 K, 6035.6 kPa, x2 = 0.8998	65.6527 kg/m3
249.91 K, 2443.9 kPa, x2 = 0.8	23.1504 kg/m3
249.91 K, 2444.1 kPa, x2 = 0.8	23.1522 kg/m3
249.91 K, 2444.9 kPa, x2 = 0.8	23.1598 kg/m3
249.91 K, 5015.8 kPa, x2 = 0.8	51.0598 kg/m3
249.91 K, 5016 kPa, x2 = 0.8	51.0618 kg/m3
249.91 K, 7570.5 kPa, x2 = 0.8	82.6548 kg/m3
249.92 K, 7570.8 kPa, x2 = 0.8	82.6605 kg/m3
249.92 K, 8909.9 kPa, x2 = 0.8	100.551 kg/m3
249.92 K, 8910.5 kPa, x2 = 0.8	100.56 kg/m3
249.92 K, 8911 kPa, x2 = 0.8	100.565 kg/m3
249.93 K, 10917 kPa, x2 = 0.8	128.204 kg/m3
249.93 K, 12900 kPa, x2 = 0.8	155.107 kg/m3
249.93 K, 12901 kPa, x2 = 0.8	155.123 kg/m3
249.93 K, 14257 kPa, x2 = 0.8	172.455 kg/m3
249.93 K, 14258 kPa, x2 = 0.8	172.479 kg/m3
249.93 K, 16938 kPa, x2 = 0.8	202.973 kg/m3
249.93 K, 16952 kPa, x2 = 0.8	203.124 kg/m3
249.94 K, 9596 kPa, x2 = 0.8	109.925 kg/m3
249.94 K, 10910 kPa, x2 = 0.8	128.101 kg/m3
249.99 K, 2003.4 kPa, x2 = 0.8998	17.6409 kg/m3
249.99 K, 2056.7 kPa, x2 = 0.8	19.2703 kg/m3
249.99 K, 3994.1 kPa, x2 = 0.8998	37.4833 kg/m3
249.99 K, 3994.2 kPa, x2 = 0.8998	37.4837 kg/m3
249.99 K, 4008 kPa, x2 = 0.8	39.6397 kg/m3
249.99 K, 6005.8 kPa, x2 = 0.8998	60.2899 kg/m3
249.99 K, 6017.6 kPa, x2 = 0.8	62.9683 kg/m3
249.99 K, 7544.1 kPa, x2 = 0.8	82.2685 kg/m3
249.99 K, 7544.6 kPa, x2 = 0.8	82.2725 kg/m3
249.99 K, 8074.6 kPa, x2 = 0.8998	86.7809 kg/m3
249.99 K, 8074.9 kPa, x2 = 0.8998	86.7846 kg/m3
249.99 K, 8075.1 kPa, x2 = 0.8998	86.7862 kg/m3
249.99 K, 10120 kPa, x2 = 0.8998	115.3 kg/m3
249.99 K, 10121 kPa, x2 = 0.8	117.092 kg/m3
249.99 K, 12763 kPa, x2 = 0.8998	152.294 kg/m3
249.99 K, 13368 kPa, x2 = 0.8	161.09 kg/m3
249.99 K, 13369 kPa, x2 = 0.8	161.093 kg/m3
250 K, 1972.2 kPa, x2 = 0.8998	17.3493 kg/m3
250 K, 2229 kPa, x2 = 0.8998	19.7632 kg/m3
250 K, 12762 kPa, x2 = 0.8998	152.28 kg/m3 and 152.282 kg/m3
250 K, 15168 kPa, x2 = 0.8998	182.264 kg/m3
250 K, 18609 kPa, x2 = 0.8998	216.303 kg/m3
274.8 K, 11276 kPa, x2 = 0.8	109.07 kg/m3
274.81 K, 2552.2 kPa, x2 = 0.8	21.5902 kg/m3
274.81 K, 2552.3 kPa, x2 = 0.8	21.5893 kg/m3
274.81 K, 5055.3 kPa, x2 = 0.8	44.7483 kg/m3
274.81 K, 5055.4 kPa, x2 = 0.8	44.7496 kg/m3
274.81 K, 7550.3 kPa, x2 = 0.8	69.666 kg/m3 and 69.6651 kg/m3
274.81 K, 7562.1 kPa, x2 = 0.8	69.788 kg/m3
274.81 K, 7562.6 kPa, x2 = 0.8	69.7929 kg/m3
274.81 K, 9501.7 kPa, x2 = 0.8	90.1191 kg/m3
274.81 K, 9502.3 kPa, x2 = 0.8	90.1254 kg/m3
274.81 K, 10330 kPa, x2 = 0.8	98.956 kg/m3
274.81 K, 10337 kPa, x2 = 0.8	99.0305 kg/m3
274.81 K, 11275 kPa, x2 = 0.8	109.063 kg/m3
274.81 K, 12889 kPa, x2 = 0.8	126.201 kg/m3
274.81 K, 12890 kPa, x2 = 0.8	126.206 kg/m3
274.81 K, 14325 kPa, x2 = 0.8	141.105 kg/m3
274.81 K, 14327 kPa, x2 = 0.8	141.128 kg/m3
274.81 K, 15731 kPa, x2 = 0.8	155.191 kg/m3
274.81 K, 15733 kPa, x2 = 0.8	155.216 kg/m3
274.81 K, 16797 kPa, x2 = 0.8	165.435 kg/m3
274.81 K, 16816 kPa, x2 = 0.8	165.609 kg/m3
274.82 K, 8425.3 kPa, x2 = 0.8	78.7622 kg/m3
274.82 K, 9439.5 kPa, x2 = 0.8	89.4646 kg/m3
274.82 K, 11275 kPa, x2 = 0.8	109.065 kg/m3
274.82 K, 11277 kPa, x2 = 0.8	109.088 kg/m3
274.82 K, 12811 kPa, x2 = 0.8	125.374 kg/m3
274.99 K, 2012.7 kPa, x2 = 0.8	16.8448 kg/m3
274.99 K, 2211 kPa, x2 = 0.8998	17.4645 kg/m3
274.99 K, 4076.7 kPa, x2 = 0.8	35.4308 kg/m3
274.99 K, 6021.2 kPa, x2 = 0.8	54.1463 kg/m3
274.99 K, 6055.4 kPa, x2 = 0.8998	51.8525 kg/m3
274.99 K, 8019.2 kPa, x2 = 0.8	74.4425 kg/m3
274.99 K, 10017 kPa, x2 = 0.8	95.4954 kg/m3
274.99 K, 11989 kPa, x2 = 0.8	116.514 kg/m3 and 116.518 kg/m3
274.99 K, 14080 kPa, x2 = 0.8	138.416 kg/m3
274.99 K, 15091 kPa, x2 = 0.8998	145.151 kg/m3
274.99 K, 15497 kPa, x2 = 0.8	152.681 kg/m3
274.99 K, 16131 kPa, x2 = 0.8	158.862 kg/m3 and 158.861 kg/m3
274.99 K, 16805 kPa, x2 = 0.8998	161.533 kg/m3 and 161.536 kg/m3
274.99 K, 17724 kPa, x2 = 0.8998	169.816 kg/m3
274.99 K, 17726 kPa, x2 = 0.8998	169.823 kg/m3
275 K, 2005.1 kPa, x2 = 0.8998	15.7688 kg/m3
275 K, 4053.8 kPa, x2 = 0.8998	33.2951 kg/m3
275 K, 6055.4 kPa, x2 = 0.8998	51.8523 kg/m3
275 K, 8023.2 kPa, x2 = 0.8998	71.384 kg/m3
275 K, 10028 kPa, x2 = 0.8998	92.2879 kg/m3
275 K, 11444 kPa, x2 = 0.8998	107.355 kg/m3
275 K, 13322 kPa, x2 = 0.8998	127.156 kg/m3
299.91 K, 2564.5 kPa, x2 = 0.8	19.5987 kg/m3 and 19.5993 kg/m3
299.91 K, 4995 kPa, x2 = 0.8	39.306 kg/m3
